In patent publication US20090010979A1, “Method of Controlling Termites” (BAYER CROPSCIENCE LP, priority 2004, published 2009):

Assay: Arrestant composition on silica with Premise 75WP distributed in soil: movement of components
Assay type: physicochemical
Conditions: after several months
Experimental: (A) Preparation of the arrestant composition: A mixture of 5-methylpentacosane, 11-methylpentacosane, 9-Z-pentacosene, n-pentacosane, and n-hexamethylcosane in proportion of about 11.4:36.3:19.6:27.7:5.0 as a 0.06% (by weight) solution in acetone (0.06 g) was diluted into acetone and mixed with 149.4 g of Zeolex® 7A brand silica (J.M. Huber, Inc. USA) The acetone was removed by evaporation at 50° C. at 3.5 mm Hg to provide a smooth flowable powder. The powder was mixed with 850 g of Premise® 75WP (imidacloprid active ingredient), and milled to a consistent appearance.
(B) Use of the Arrestant Composition of Part (A): The final product is distributed in soil.

O=[N+]([O-])NC1=NCCN1Cc1ccc(Cl)nc1 [imidacloprid]
movement in soil: moves downward
